Assay results published in the NIST ThermoML archive (doi:10.1016/j.jct.2007.11.001).

Assay: molar heat capacity at constant pressure
Conditions: 101.33 kPa, Small (less than 1 g) adiabatic calorimetry

O=P([O-])([O-])[O-].[Cs+].[Mg+2] [caesium-magnesium monophosphate]
molar heat capacity at constant pressure [J/K/mol]
Conditions	Crystal 1	Crystal 2
169.34 K	–	93.7
172.31 K	–	94.79
175.74 K	–	96.03
178.73 K	–	97.11
182.05 K	–	98.28
185.19 K	–	99.36
188.17 K	–	100.4
191.4 K	–	101.5
194.3 K	–	102.6
197.16 K	–	103.5
199.5 K	–	104.3
200.16 K	–	104.6
202.4 K	–	105.3
202.86 K	–	105.5
205.51 K	–	106.3
205.98 K	–	106.6
208.48 K	–	107.5
208.94 K	–	107.8
211.44 K	–	108.6
211.9 K	–	108.9
214.13 K	–	109.6
214.59 K	–	109.9
217.18 K	–	110.9
217.64 K	–	111.2
220.64 K	–	112.7
221.1 K	–	113
223.65 K	–	114.4
224.11 K	–	114.9
226.53 K	–	116.3
226.99 K	–	116.9
232.4 K	–	122.6
232.75 K	–	123.1
235.69 K	133.5	129.2
235.7 K	129.1	–
237.89 K	126.1	–
238.55 K	124.9	–
240.77 K	121.7	–
241.43 K	120.9	–
243.77 K	118.8	–
244.43 K	118.3	–
246.72 K	116.9	–
247.38 K	116.7	–
249.24 K	115.8	–
249.9 K	115.7	–
250 K	112.2	–
252.35 K	115.1	–
253.01 K	114.9	–
255.27 K	114.7	–
255.8 K	114.7	–
257.91 K	114.8	–
258.57 K	114.8	–
260 K	114.2	–
260.67 K	115	–
261.33 K	115.1	–
263.41 K	115.3	–
264.07 K	115.4	–
266.23 K	115.7	–
266.89 K	115.8	–
268.97 K	116.1	–
269.63 K	116.2	–
270 K	116.3	–
271.52 K	116.5	–
272.18 K	116.7	–
274.19 K	117.1	–
274.85 K	117.2	–
276.83 K	117.7	–
277.49 K	117.8	–
280 K	118.3	–
280.12 K	118.3	–
282.5 K	118.8	–
285.44 K	119.4	–
287.8 K	119.8	–
289.7 K	120.3	–
290 K	120.3	–
